Measurements reported in publication PMC6494957 (Frontiers in Microbiology, 2019).
Where two headings read alike, the source gives them in different places.

How the values were obtained:
[1] = test system: A. calcoaceticus (human clinical isolate); assay: microbe, parasite or virus in culture; conditions: Acinetobacter calcoaceticus
Description: (§1) The MIC for ampicillin or gentamicin against each isolate was determined for each test to serve as an internal quality control. The MICs of isolates were determined by visual reading and using an EnSpire Multimode Plate Reader 2300 atA600nm.
(§2) Briefly, antimicrobial stock solutions for robenidine and PMBN were prepared at a concentration of 12.8 mg/ml in DMSO. […] A 1 μl aliquot of the first compound from each combination was dispensed along the abscissa (from row A to G) of the 96-well microplate, while the second compound was dispensed along the ordinate (from column 12 to column 3) using an electronic multichannel pipette followed by 89 μl of LB broth. Each well of the plate was inoculated with an aliquot of 10 μl bacterial suspension at a concentration of 1-5 × 10^6 colony forming units (CFU) per ml. Subsequently, the plate was incubated at 37°C for 24 h. The fractional inhibitory concentration index (FICI) described the results of the combinations, and was calculated utilizing the following formula:
(§3) DRI = MIC of drug alone/MIC of drug in combination

[2] = test system: A. baumannii ATCC 12457; assay: microbe, parasite or virus in culture; conditions: for MIC: Acinetobacter baumannii
Description: as §1, §2, §3

[3] = test system: P. mirabilis ATCC 43071; assay: microbe, parasite or virus in culture; conditions: for MIC: Proteus mirabilis
Description: as §1, §2, §3

[4] = test system: E. coli ATCC 25922; assay: microbe, parasite or virus in culture; conditions: for MIC: Escherichia coli
Description: as §1, §2, §3

[5] = test system: K. pneumoniae ATCC 13883; assay: microbe, parasite or virus in culture; conditions: for MIC: Klebsiella pneumoniae
Description: as §1, §2, §3

[6] = test system: P. putida ATCC 17428; assay: microbe, parasite or virus in culture; conditions: for MIC: Pseudomonas putida
Description: as §1, §2, §3

[7] = test system: P. aeruginosa (n = 30) clinical isolates from otitis externa cases in dogs; assay: MIC/MBC and checkerboard, canine otitis externa isolates; assay type: cell-based, Pseudomonas aeruginosa; conditions: for MIC50 / MIC90: Pseudomonas aeruginosa
Text: Escherichia coli ATCC 25922, E. coli ATCC 11229, P. aeruginosa ATCC 27853, P. aeruginosa PA01, Pseudomonas putida ATCC 17428, P. mirabilis ATCC 43071, K. pneumoniae ATCC 13883, A. baumannii ATCC 19606, and A. baumannii ATCC 12457 were used for preliminary susceptibility testing and combination experiments. S. aureus ATCC 29213 and S. pneumoniae ATCC 49619 were used as internal quality controls. A variety of bacterial organisms from both human and canine infections were investigated in this study (n = 119 isolates in total). Twenty-eight clinical Acinetobacter spp. isolates were obtained from cases of human skin and soft tissue infections, including 18 Acinetobacter baumannii and 10 A. calcoaceticus, kindly provided by a person (Institute of Medical and Veterinary Science, South Australia). […] Ninety-one clinical isolates were obtained from cases of canine otitis externa, including seven methicillin-susceptible S. pseudintermedius (MSSP), 13 multidrug- and methicillin-resistant S. pseudintermedius (MRSP) ([Saputra et al., 2017]), 20 beta-haemolytic Streptococcus spp., 30 P. aeruginosa (10 of them resistant to gentamicin and 21 P. mirabilis isolates). These isolates were obtained from the bacterial collection of the national survey of antimicrobial resistance in animals conducted in Australia. Swab samples from dogs with signs of otitis externa were collected by veterinarians and submitted to government, private or university diagnostic laboratories throughout Australia. After routine bacterial identification and the removal of confidential information, the participating veterinary diagnostic laboratories submitted the bacteria and their clinical information to PC2 Laboratories, Australian Centre for Antimicrobial Resistance Ecology, School of Animal and Veterinary Sciences, University of Adelaide, Roseworthy Campus, Roseworthy, SA, Australia, for further study. Thus, animal ethics approval was not required in this study. These organisms were identified to species level using biochemical testing and MALDI-TOF mass spectrometry (Bruker, Preston, VIC, Australia).
as §1
Briefly, 10 μl aliquots from each duplicate well from the MIC assays (starting from the MIC for each compound) were inoculated onto a sheep blood agar (SBA) plate and incubated at 37°C.
as §2, §3

[8] = concentration of the labelled component

O=C(O)CN(CCN(CC(=O)O)CC(=O)O)CC(=O)O [EDTA, ethylenediaminetetraacetic acid]
MIC ([1]; read-out: MIC, single drug): 228 µg/mL
MIC ([1]; read-out: MIC, single drug (mM in parentheses)): 0.6 mM
DRI EDTA:ROB ([2]; A. baumannii ATCC 12457, DRI of the labelled component): 2
MIC in combination EDTA:ROB (mM in parentheses) ([2]; A. baumannii ATCC 12457, EDTA component): 0.25 mM
MIC in combination EDTA:ROB ([2]; A. baumannii ATCC 12457, concentration of the labelled component): 95 µg/mL
MIC ([2]; ATCC12457, read-out: MIC, single drug): 190 µg/mL
MIC ([2]; ATCC12457, read-out: MIC, single drug (mM in parentheses)): 0.5 mM
DRI EDTA:ROB ([3]; P. mirabilis ATCC 43071, DRI of the labelled component): 1
MIC in combination EDTA:ROB (mM in parentheses) ([3]; P. mirabilis ATCC 43071, EDTA component): 0.6 mM
MIC in combination EDTA:ROB ([3]; P. mirabilis ATCC 43071, concentration of the labelled component): 228 µg/mL
MIC ([3]; ATCC43071, read-out: MIC, single drug): 228 µg/mL
MIC ([3]; ATCC43071, read-out: MIC, single drug (mM in parentheses)): 0.6 mM
DRI EDTA:ROB ([4]; E. coli ATCC 25922, DRI of the labelled component): 4
MIC in combination EDTA:ROB (mM in parentheses) ([4]; E. coli ATCC 25922, EDTA component): 2.5 mM
MIC in combination EDTA:ROB ([4]; E. coli ATCC 25922, concentration of the labelled component): 950 µg/mL
MIC ([4]; ATCC25922, read-out: MIC, single drug): 3800 µg/mL
MIC ([4]; ATCC25922, read-out: MIC, single drug (mM in parentheses)): 10 mM
DRI EDTA:ROB ([5]; K. pneumoniae ATCC 13883, DRI of the labelled component): 3
MIC in combination EDTA:ROB (mM in parentheses) ([5]; K. pneumoniae ATCC 13883, EDTA component): 10 mM
MIC in combination EDTA:ROB ([5]; K. pneumoniae ATCC 13883, concentration of the labelled component): 3800 µg/mL
MIC ([5]; ATCC13883, read-out: MIC, single drug): 11400 µg/mL
MIC ([5]; ATCC13883, read-out: MIC, single drug (mM in parentheses)): 30 mM
DRI EDTA:ROB ([6]; P. putida ATCC 17428, DRI of the labelled component): 2
MIC in combination EDTA:ROB (mM in parentheses) ([6]; P. putida ATCC 17428, EDTA component): 2.5 mM
MIC in combination EDTA:ROB ([6]; P. putida ATCC 17428, concentration of the labelled component): 950 µg/mL
MIC ([6]; ATCC17428, read-out: MIC, single drug): 1900 µg/mL
MIC ([6]; ATCC17428, read-out: MIC, single drug (mM in parentheses)): 5 mM
MBC/MIC row, EDTA in combination [7]: 750 µg/mL
MBC/MIC row, EDTA in combination (mM in parentheses) [7]: 2 mM
MIC range, single drug (mM in parentheses) [7]: 2 to 12 mM
MIC50, in combination of EDTA and ROB (mM in parentheses) ([7]; EDTA component): 4 mM
MIC90, in combination of EDTA and ROB (mM in parentheses) ([7]; EDTA component): 4 mM
MIC range, in combination of EDTA and ROB (mM in parentheses) ([7]; EDTA component): 1 to 4 mM
MIC50 ([7]; canine otitis externa, read-out: MIC50, single drug): 3000 µg/mL
MIC90 ([7]; canine otitis externa, read-out: MIC90, single drug): 3000 µg/mL
MIC50 ([7]; read-out: MIC50, single drug (mM in parentheses)): 8 mM
MIC90 ([7]; read-out: MIC90, single drug (mM in parentheses)): 8 mM
MIC range, single drug ([7]; canine otitis externa): 750 to 4500 µg/mL
MIC50, in combination of EDTA and ROB [7, 8]: 1500 µg/mL
MIC90, in combination of EDTA and ROB [7, 8]: 1500 µg/mL
MIC range, in combination of EDTA and ROB [7, 8]: 380 to 1500 µg/mL
